In DBAASP:
In brackets after ≈: the same amount, converted by molar mass. Blank lines part the entries; values can stand above or below the compound they belong to.

Assays:
Assay in all cases: ≥ marks a high value that may be exact or a test limit, other limits are often not marked, values filed in µg/mL are converted to µM
[1] = tested on: Burkholderia cepacia J2540
[2] = tested on: Batrachochytrium dendrobatidis JEL-197
[3] = tested on: Candida albicans ATCC 90028
[4] = tested on: Escherichia coli ATCC 25922
[5] = tested on: Staphylococcus aureus NCTC 8325
[6] = tested on: Candida albicans NCPF 1467
[7] = tested on: Staphylococcus aureus NCTC 10788
[8] = tested on: Escherichia coli NCTC 10418
[9] = tested on: Escherichia coli ATCC 25726
[10] = tested on: Staphylococcus aureus ATCC 25923
[11] = tested on: Escherichia coli IFO 12734
[12] = tested on: Bacillus subtilis IFO 3134
[13] = tested on: Staphylococcus aureus IFO 12732
[14] = tested on: Pseudomonas aeruginosa IFO 12582
[15] = tested on: Xanthomonas vesicatoria DSM 50861
[16] = tested on: Pseudomonas syringae pv. tomato DC3000
[17] = tested on: Pectobacterium carotovorum subsp. carotovorum DSM 30168
[18] = tested on: Alternaria alternata
[19] = tested on: Fusarium solani
[20] = tested on: Pseudomonas syringae pv. syringae DSM 10604
[21] = tested on: Pseudomonas corrugata DSM 7228
[22] = tested on: Staphylococcus aureus ATCC 6538
[23] = tested on: Clavibacter michiganensis subsp. michiganensis DSM 46294
[24] = tested on: Botrytis cinerea
[25] = tested on: Pseudomonas aeruginosa ATCC 9027
[26] = tested on: Cladosporium herbarum
[27] = tested on: Micrococcus luteus ATCC 9341
[28] = tested on: Pseudomonas aeruginosa KCTC 1637
[29] = tested on: Staphylococcus aureus KCTC 1621
[30] = tested on: Bacillus subtilis KCTC 1918
[31] = tested on: Salmonella typhimurium KCTC 1926
[32] = tested on: Streptococcus pyogenes KCTC 3096
[33] = tested on: Escherichia coli KCTC 1682

MIC [2]: 6.25 µM (≈ 16.1 µg/mL)
MIC [3]: 16 µM (≈ 41.2 µg/mL)
MIC [4]: 16 µM (≈ 41.2 µg/mL)
MIC [5]: 4 µM (≈ 10.3 µg/mL)
Compound: CC[C@H](C)[C@H](NC(=O)[C@@H]1CCCN1C(=O)[C@H](CC(C)C)NC(=O)[C@@H](N)Cc1ccccc1)C(=O)N[C@@H](CC(C)C)C(=O)N[C@@H](C)C(=O)N[C@@H](CO)C(=O)N[C@@H](CC(C)C)C(=O)N[C@@H](C)C(=O)N[C@@H](C)C(=O)N[C@@H](CCCCN)C(=O)N[C@@H](CC(C)C)C(=O)NCC(=O)N1CCC[C@H]1C(=O)N[C@@H](CCCCN)C(=O)N[C@@H](CC(C)C)C(=O)N[C@@H](Cc1ccccc1)C(=O)N[C@H]1CSSC[C@@H](C(=O)O)NC(=O)[C@H](CCCCN)NC(=O)[C@H](CCCCN)NC(=O)[C@H]([C@@H](C)O)NC(=O)[C@H](C(C)C)NC(=O)[C@H](CC(C)C)NC1=O [FLPILASLAAKLGPKLFCLVTKKC]

MIC [6]: 15 µM (≈ 30 µg/mL)
MIC [7]: 5 µM (≈ 10 µg/mL)
MIC [8]: ≥ 200 µM
Compound: CC[C@H](C)[C@H](NC(=O)CNC(=O)[C@H](CO)NC(=O)[C@H](C)NC(=O)[C@@H](NC(=O)[C@H](Cc1cnc[nH]1)NC(=O)[C@@H]1CCCN1C(=O)[C@H](CC(C)C)NC(=O)[C@H](CC(C)C)NC(=O)[C@H](CO)NC(=O)[C@H](CC(C)C)NC(=O)[C@@H](N)Cc1ccccc1)[C@@H](C)CC)C(=O)N[C@@H](C)C(=O)N[C@@H](CO)C(=O)N[C@@H](CC(C)C)C(=O)N[C@H](C(=O)N[C@@H](CO)C(=O)N[C@@H](CCCCN)C(=O)N[C@@H](Cc1ccccc1)C(N)=O)C(C)C [FLSLLPHIASGIASLVSKF]

MIC [2]: ≥ 50 µM
MIC [9]: 10 µM (≈ 33.2 µg/mL)
MIC [10]: 20 µM (≈ 66.4 µg/mL)
Compound: CC[C@H](C)[C@H](NC(=O)CN)C(=O)N[C@@H](CC(C)C)C(=O)N[C@@H](CO)C(=O)N[C@@H](CO)C(=O)N[C@@H](Cc1ccccc1)C(=O)N[C@@H](CCCCN)C(=O)N[C@@H](CC(=O)O)C(=O)N[C@H](C(=O)N[C@@H](C)C(=O)N[C@@H](CCCCN)C(=O)NCC(=O)N[C@H](C(=O)N[C@@H](C)C(=O)N[C@@H](CCCCN)C(=O)N[C@@H](CC(N)=O)C(=O)N[C@H](C(=O)N[C@@H](C)C(=O)N[C@@H](C)C(=O)N[C@@H](CCC(N)=O)C(=O)N[C@@H](CC(C)C)C(=O)N[C@@H](CC(C)C)C(=O)N[C@@H](CC(=O)O)C(=O)N[C@@H](CCCCN)C(=O)N[C@@H](CC(C)C)C(=O)N[C@@H](CCCCN)C(=O)N[C@H]1CSSC[C@@H](C(=O)O)NC(=O)CNC(=O)[C@H]([C@@H](C)O)NC(=O)[C@H]([C@@H](C)CC)NC(=O)[C@H](CCCCN)NC1=O)C(C)C)C(C)C)C(C)C [GILSSFKDVAKGVAKNVAAQLLDKLKCKITGC]

MIC [15]: 29.2 µM (≈ 40 µg/mL)
MIC [16]: 29.2 µM (≈ 40 µg/mL)
MIC [17]: 29.2 µM (≈ 40 µg/mL)
MIC [18]: ≥ 72.9 µM
MIC [20]: 29.2 µM (≈ 40 µg/mL)
MIC [21]: 29.2 µM (≈ 40 µg/mL)
MIC [23]: 14.6 µM (≈ 20 µg/mL)
MIC [24]: ≥ 72.9 µM
MIC [26]: ≥ 72.9 µM
Compound: CC[C@H](C)[C@H](NC(=O)[C@H](CC(C)C)NC(=O)[C@@H](N)CC(C)C)C(=O)N[C@@H](C)C(=O)N[C@@H](C)C(=O)N[C@@H](Cc1ccccc1)C(=O)N[C@@H](CCCCN)C(=O)N[C@@H](CCCCN)C(=O)N[C@@H](CC(C)C)C(=O)N[C@H](C(=O)N[C@@H](CCCCN)C(=O)N[C@@H](CCCCN)C(N)=O)C(C)C [LLIAAFKKLVKK]

The next lines start with the compound.

Compound: CC[C@H](C)[C@H](NC(=O)CNC(=O)[C@H](CCCN=C(N)N)NC(=O)[C@H](CC(C)C)NC(=O)[C@H](Cc1ccccc1)NC(=O)[C@H](CC(=O)O)NC(=O)[C@H](CCCCN)NC(=O)[C@@H](NC(=O)[C@H](CCCN=C(N)N)NC(=O)[C@H](CCC(N)=O)NC(=O)[C@@H](NC(=O)[C@@H](NC(=O)[C@H](CCCN=C(N)N)NC(=O)[C@H](CCCCN)NC(=O)[C@@H](N)Cc1ccccc1)[C@@H](C)CC)C(C)C)[C@@H](C)CC)C(=O)NCC(=O)N[C@@H](CCCCN)C(=O)N[C@@H](Cc1ccccc1)C(=O)N[C@@H](CC(C)C)C(=O)N[C@@H](Cc1cnc[nH]1)C(=O)N[C@@H](CO)C(=O)N[C@@H](C)C(=O)N[C@@H](CCCCN)C(=O)N[C@@H](CCCCN)C(=O)N[C@@H](Cc1ccccc1)C(=O)O [FKRIVQRIKDFLRGIGKFLHSAKKF]
MIC [1]: 10.3 µM (≈ 31.3 µg/mL)

Compound: CC[C@H](C)[C@H](NC(=O)[C@H](C)NC(=O)[C@@H]1CCCN1C(=O)[C@@H](NC(=O)[C@@H](NC(=O)[C@H](CCCCN)NC(=O)[C@H](C)NC(=O)[C@H](C)NC(=O)[C@@H](NC(=O)[C@H](CCCCN)NC(=O)[C@H](C)NC(=O)[C@H](CC(C)C)NC(=O)[C@@H](NC(=O)CNC(=O)[C@H](Cc1ccccc1)NC(=O)[C@H](CC(C)C)NC(=O)CN)C(C)C)C(C)C)C(C)C)C(C)C)C(=O)N[C@@H](C)C(=O)N[C@@H](CCC(=O)O)C(=O)N[C@@H](Cc1cnc[nH]1)C(=O)N[C@@H](Cc1ccccc1)C(N)=O [GLFGVLAKVAAKVVPAIAEHF]
MIC [11]: 16 µM (≈ 34.2 µg/mL)
MIC [12]: 8 µM (≈ 17.1 µg/mL)
MIC [13]: 8 µM (≈ 17.1 µg/mL)
MIC [14]: ≥ 32 µM

Compound: CC[C@H](C)[C@H](N)C(=O)N[C@@H](CC(C)C)C(=O)N1CCC[C@H]1C(=O)N[C@@H](Cc1c[nH]c2ccccc12)C(=O)N[C@@H](CCCCN)C(=O)N[C@@H](Cc1c[nH]c2ccccc12)C(=O)N1CCC[C@H]1C(=O)N[C@@H](Cc1c[nH]c2ccccc12)C(=O)N[C@@H](Cc1c[nH]c2ccccc12)C(=O)N1CCC[C@H]1C(=O)N[C@@H](Cc1c[nH]c2ccccc12)C(=O)N[C@@H](CCCNC(=N)N)C(=O)N[C@@H](CCCNC(=N)N)C(=O)O [ILPWKWPWWPWRR]
MIC [15]: 1.05 µM (≈ 2 µg/mL)
MIC [16]: ≥ 33.6 µM
MIC [17]: ≥ 33.6 µM
MIC [18]: 16.8 µM (≈ 32 µg/mL)
MIC [19]: 4.19 µM (≈ 8 µg/mL)
MIC [20]: ≥ 33.6 µM
MIC [21]: ≥ 33.6 µM
MIC [22]: 5.24 µM (≈ 10 µg/mL)
MIC [23]: 0.524 µM (≈ 1 µg/mL)
MIC [24]: 16.8 µM (≈ 32 µg/mL)
MIC [25]: > 105 µM
MIC [26]: ≥ 33.6 µM
MIC [27]: 1.6 µM (≈ 3.05 µg/mL)

Compound: CC[C@H](C)[C@H](NC(=O)[C@H](CCCCN)NC(=O)[C@H](CCCCN)NC(=O)[C@H](Cc1ccccc1)NC(=O)[C@H](CC(C)C)NC(=O)[C@H](CCCCN)NC(=O)[C@H](Cc1c[nH]c2ccccc12)NC(=O)[C@@H](N)CCCCN)C(=O)N[C@@H](CCCCN)C(=O)N[C@@H](Cc1ccccc1)C(=O)N[C@@H](CC(C)C)C(=O)N[C@@H](Cc1cnc[nH]1)C(=O)N[C@@H](CO)C(=O)N[C@@H](C)C(=O)N[C@@H](CCCCN)C(=O)N[C@@H](CCCCN)C(=O)N[C@@H](Cc1ccccc1)C(N)=O [KWKLFKKIKFLHSAKKF]
MIC [28]: 1.56 µM (≈ 3.4 µg/mL)
MIC [29]: 3.12 µM (≈ 6.8 µg/mL)
MIC [30]: 1.56 µM (≈ 3.4 µg/mL)
MIC [31]: 0.78 µM (≈ 1.7 µg/mL)
MIC [32]: 0.78 µM (≈ 1.7 µg/mL)
MIC [33]: 6.25 µM (≈ 13.6 µg/mL)
